Laboratory results from patent US20250313546A1, “NUCLEIC ACID BINDERS” (UNIVERSITY OF STRATHCLYDE, priority 2022, published 2025).
Converted amounts (≈) assume the structure as drawn.

Legend:
[1] = tested on: PolyAU double stranded RNA; assay: Fluorescence intercalator displacement (FID) assay, SYBR-safe probe; details: 20 μM compound, 30° C., lower % = stronger binding
Procedure, shortened: (§1)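 Compound at 20 μM mixed with 3.76 ng/mL polyAU dsRNA or salmon genomic dsDNA and 12500-fold diluted SybrSafe in 1 mM phosphate buffer pH 7.4, then heated to 30 °C and fluorescence read. Reduction is expressed as normalised %, with nucleic acid plus probe as maximum and probe alone as minimum.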

[2] = tested on: Genomic double stranded DNA (salmon); assay: as above; details: 20 μM compound, 30° C., lower % = stronger binding
Procedure, shortened: as §1

[3] = tested on: Escherichia coli (ATCC 25922); assay: Antibacterial MIC, broth microdilution (CLSI); format: cell-based; details: Escherichia coli, ATCC25922; read-out: MIC80 E. coli
T. vaginalis = assay: Trichomonas resorufin assay; format: cell-based; details: for IC50: Trichomonas vaginalis, read-out: IC50 T. vaginalis; for T. vaginalis Selectivity Indices, Group: SI, IC50 (μM)/IC50 (μM), HEK293 cytotoxicity
[4] = tested on: Staphylococcus aureus (ATCC 43300); assay: Antibacterial MIC, broth microdilution (CLSI); format: cell-based; details: for MIC80: Staphylococcus aureus, ATCC43300, read-out: MIC80 S. aureus
[5] = tested on: Enterococcus faecalis (ATCC 51299); assay: Antibacterial MIC, broth microdilution (CLSI); format: cell-based; details: for MIC80: Enterococcus faecalis, ATCC51299, read-out: MIC80 E. faecalis
[6] = tested on: A. fumigatus A1160 (MFIG001); details: Aspergillus fumigatus, read-out: MIC99 A. fumigatus A1160
C. neoformans (F10025) = details: Cryptococcus neoformans, read-out: MIC99 C. neoformans
[7] = tested on: Candida glabrata (ACPF3309); details: Nakaseomyces glabratus, read-out: MIC99 Candida glabrata
[8] = tested on: Rhizopus arrhizus (NEQAS12.35321); details: read-out: MIC99 Rhizopus arrhizus
Candida auris (H.17.157) = details: Candidozyma auris, read-out: MIC99 Candida auris
Experimental: The Minimum Inhibitory Concentration (MIC, at 99% inhibition) of the compounds was determined using the broth microdilution method as recommended by EUCAST (EUCAST Definitive Document E.DEF 9.3.2, Method for the determination of broth dilution minimum inhibitory concentrations of antifungal agents for conidia forming moulds and EUCAST Definitive Document E.DEF 7.3.2 Method for the determination of broth dilution minimum inhibitory concentrations of antifungal agents for yeasts).

[9] = SI, IC50 (μM)/MIC80 (μM), HEK293 cytotoxicity, Alkyl Amidines and NH Pyrroles
[10] = SI, IC50 (μM)/MIC80 (μM), HEK293 cytotoxicity, numeric value
[11] = SI, IC50 (μM)/MIC80 (μM), HEK293 cytotoxicity, Quaternary ammoniums

| SMILES | % Normalised Fluorescence with polyAU RNA [1] [%] | % Normalised Fluorescence with gDNA [2] [%] | MIC80 [3] [µM] | IC50 (T. vaginalis) [µM] | MIC80 [4] [µM] | MIC80 [5] [µM] | MIC99 [6] [µg/mL] | MIC99 (C. neoformans (F10025)) [µg/mL] | MIC99 [7] [µg/mL] | S. aureus Selectivity Indices, Group [4, 9] | MIC99 [8] [µg/mL] | T. vaginalis Selectivity Indices, Group (T. vaginalis; Alkyl Amidines and NH Pyrroles) | S. aureus Selectivity Index (SI) [4, 10] | E. faecalis Selectivity Indices, Group [5, 9] | MIC99 (Candida auris (H.17.157)) [µg/mL] | T. vaginalis Selectivity Indices, Group (T. vaginalis; Quaternary ammoniums) | S. aureus Selectivity Indices, Group [4, 11] | E. faecalis Selectivity Indices, Group [5, 11] | E. faecalis Selectivity Index (SI) [5, 10] |
| --- | --- | --- | --- | --- | --- | --- | --- | --- | --- | --- | --- | --- | --- | --- | --- | --- | --- | --- | --- |
| CCCCCCC/N=C(/CCNC(=O)c1cc(NC(=O)c2cc(NC(=O)c3ccc(/C=C/c4cnc5ccccc5c4)cc3)cn2C)cn1C)NCCCCCCC [Ia37, N—((Z)-3-(heptylamino)-3-(heptylimino)propyl)-1-methyl-4-(1-methyl-4-(4-((E)-2-(quinolin-3-yl)vinyl)benzamido)-1H-pyrrole-2-carboxamido)-1H-pyrrole-2-carboxamide] | 68 | 16 | > 100 | 5 to 50 | 5 to 25 (≈ 3.93 to 19.6 µg/mL) | 25 to 100 (≈ 19.6 to 78.5 µg/mL) | > 50 | 25 to 50 (≈ 31.8 to 63.7 µM) | > 50 | – | – | – | – | – | – | – | – | – | – |
| CCCC/N=C(\CCNC(=O)c1cc(NC(=O)c2cc(NC(=O)c3ccc(/C=C/c4cnc5ccccc5c4)cc3)cn2C)cn1C)NCCCC [Ia38, N—((E)-3-(butylamino)-3-(butylimino)propyl)-1-methyl-4-(1-methyl-4-(4-((E)-2-(quinolin-3-yl)vinyl)benzamido)-1H-pyrrole-2-carboxamido)-1H-pyrrole-2-carboxamide] | 4 | 10 | > 100 | 5 to 50 | < 5 | 25 to 100 (≈ 17.5 to 70.1 µg/mL) | > 50 | 25 to 50 (≈ 35.7 to 71.3 µM) | 5 to 25 (≈ 7.13 to 35.7 µM) | – | – | – | – | – | – | – | – | – | – |
| CCCC/N=C(\CCNC(=O)c1cc(NC(=O)c2cc(NC(=O)c3ccc(/C=C/c4ccc(N(C)C)cc4)nc3)cn2C)cn1C)NCCCC [Ia39, N-(5-((5-(((E)-3-(butylamino)-3-(butylimino)propyl)carbamoyl)-1-methyl-1H-pyrrol-3-yl)carbamoyl)-1-methyl-1H-pyrrol-3-yl)-6-((E)-4-(dimethylamino)styryl)nicotinamide] | 43 | 50 | > 100 | 5 to 50 | < 5 | 25 to 100 (≈ 17.3 to 69.4 µg/mL) | > 50 | 25 to 50 (≈ 36 to 72.1 µM) | 25 to 50 (≈ 36 to 72.1 µM) | – | – | – | – | – | – | – | – | – | – |
| Cn1cc(NC(=O)c2cc(NC(=O)c3ccc(/C=C/c4cnc5ccccc5c4)cc3)cn2C)cc1C(=O)NCCC(=N)NCCC1CCOCC1 [Ia44, (E)-N-(3-imino-3-((2-(tetrahydro-2H-pyran-4-yl)ethyl)amino)propyl)-1-methyl-4-(1-methyl-4-(4-(2-(quinolin-3-yl)vinyl)benzamido)-1H-pyrrole-2-carboxamido)-1H-pyrrole-2-carboxamide] | 19 | 16 | > 100 | 5 to 50 | 5 to 25 (≈ 3.5 to 17.5 µg/mL) | 5 to 25 (≈ 3.5 to 17.5 µg/mL) | > 50 | 25 to 50 (≈ 35.7 to 71.3 µM) | 5 to 25 (≈ 7.13 to 35.7 µM) | – | – | – | – | – | – | – | – | – | – |
| [H]/N=C(\CCNC(=O)c1cc(NC(=O)c2cc(NC(=O)c3ccc(C=Cc4ccc5nonc5c4)cc3)cn2C)cn1C)NCCC1CCOCC1 [Ia45, (E)-4-(4-(2-(benzo[c][1,2,5]oxadiazol-5-yl)vinyl)benzamido)-N-(5-((3-imino-3-((2-(tetrahydro-2H-pyran-4-yl)ethyl)amino)propyl)carbamoyl)-1-methyl-1H-pyrrol-3-yl)-1-methyl-1H-pyrrole-2-carboxamide] | 3 | 9 | > 100 | 5 to 50 | 5 to 25 (≈ 3.46 to 17.3 µg/mL) | > 100 | > 50 | 5 to 25 (≈ 7.23 to 36.1 µM) | 25 to 50 (≈ 36.1 to 72.3 µM) | B (Group B: 3 < SI <= 5) | – | – | – | – | – | – | – | – | – |
| CN1CCN(C(=N)CCNC(=O)c2cc(NC(=O)c3cc(NC(=O)c4ccc(/C=C/c5cnc6ccccc6c5)cc4)cn3C)cn2C)CC1 [Ib3, (E)-N-(3-imino-3-(4-methylpiperazin-1-yl)propyl)-1-methyl-4-(1-methyl-4-(4-(2-(quinolin-3-yl)vinyl)benzamido)-1H-pyrrole-2-carboxamido)-1H-pyrrole-2-carboxamide] | 5 | 13 | > 100 | 5 to 50 | < 5 | 5 to 25 (≈ 3.36 to 16.8 µg/mL) | > 50 | 5 to 25 (≈ 7.44 to 37.2 µM) | 5 to 25 (≈ 7.44 to 37.2 µM) | B (Group B: 3 < SI <= 5) | – | – | – | – | – | – | – | – | – |
| Cn1cc(NC(=O)c2cc(NC(=O)c3ccc(/C=C/c4cnc5ccccc5c4)cc3)cn2C)cc1C(=O)NCCC(=N)N1CCOCC1 [Ib5, (E)-N-(3-imino-3-morpholinopropyl)-1-methyl-4-(1-methyl-4-(4-(2-(quinolin-3-yl)vinyl)benzamido)-1H-pyrrole-2-carboxamido)-1H-pyrrole-2-carboxamide] | 13 | 22 | > 100 | 1 to 5 | < 5 | < 5 | 5 to 25 (≈ 7.59 to 37.9 µM) | 5 to 25 (≈ 7.59 to 37.9 µM) | < 5 | D (D: SI > 10) | 25 to 50 (≈ 37.9 to 75.9 µM) | C (Group C: 16 < SI <= 32) | 27 | C (Group C: 5 < SI <= 10) | – | – | – | – | – |
| [H]/N=C(\CCNC(=O)c1cc(NC(=O)c2cc(NC(=O)c3ccc(C=Cc4ccc5nonc5c4)cc3)cn2C)cn1C)N1CCOCC1 [Ib6, (E)-4-(4-(2-(benzo[c][1,2,5]oxadiazol-5-yl)vinyl)benzamido)-N-(5-((3-imino-3-morpholinopropyl)carbamoyl)-1-methyl-1H-pyrrol-3-yl)-1-methyl-1H-pyrrole-2-carboxamide] | 49 | 11 | > 100 | > 50 | 5 to 25 (≈ 3.25 to 16.2 µg/mL) | 25 to 100 (≈ 16.2 to 65 µg/mL) | – | 25 to 50 (≈ 38.5 to 77 µM) | 25 to 50 (≈ 38.5 to 77 µM) | – | 5 to 25 (≈ 7.7 to 38.5 µM) | – | – | – | – | – | – | – | – |
| [H]/N=C(\CCNC(=O)c1cc(NC(=O)c2cc(NC(=O)c3ccc(C=Cc4ccc5nonc5c4)cc3)cn2C)cn1C)N1CCSCC1 [Ib8, (E)-4-(4-(2-(benzo[c][1,2,5]oxadiazol-5-yl)vinyl)benzamido)-N-(5-((3-imino-3-thiomorpholinopropyl)carbamoyl)-1-methyl-1H-pyrrol-3-yl)-1-methyl-1H-pyrrole-2-carboxamide] | 4 | 15 | > 100 | 1 to 5 | < 5 | < 5 | 5 to 25 (≈ 7.51 to 37.5 µM) | 5 to 25 (≈ 7.51 to 37.5 µM) | < 5 | – | 5 to 25 (≈ 7.51 to 37.5 µM) | – | – | – | – | – | – | – | – |
| COCCOCC[N+](C)(C)CCNC(=O)c1cc(NC(=O)c2cc(NC(=O)c3ccc(/C=C/c4cnc5ccccc5c4)cc3)cn2C)cn1C [Ic18, (E)-2-(2-methoxyethoxy)-N,N-dimethyl-N-(2-(1-methyl-4-(1-methyl-4-(4-(2-(quinolin-3-yl)vinyl)benzamido)-1H-pyrrole-2-carboxamido)-1H-pyrrole-2-carboxamido)ethyl)ethan-1-aminium] | – | – | > 100 | 1 to 5 | < 5 | < 5 | > 50 | 5 to 25 | < 5 | – | 25 to 50 | – | – | – | > 50 | C (Group C: 1.5 < SI <= 3) | C (Group C: 5 < SI <= 10) | D (Group D: SI > 5) | 5.1 |
